Experimental data reported in patent publication US10774064B2 (Cadent Therapeutics, Inc., priority 2016, dated 2020).

Biological target: T1, small-conductance Ca2+-activated K+ channels (SK channels, subtype 2) (Homo sapiens, UniProt Q9H2S1)
T1 construct: expressed in transfected cells; host or cells: HEK293
Assay: whole-cell patch-clamp of ionic current through SK2 channels in HEK293 cells (SC100)
Format: cell-based
Details: whole-cell patch-clamp, HEK293 cells expressing SK2 channels; concentration that increases the basal current by 100%
How it was run: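 Whole-cell patch-clamp recording of current in HEK293 cells expressing SK2 channels. SC100 is the compound concentration that increases basal current by 100%.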

| Compound | SC100 (μM) |
| --- | --- |
| Cc1ccn(-c2nc(NC(C)C)cc(C(C)O)n2)n1 (centres unmarked) [IN10880-056-P1] | + (+ means >1 uM) |
| Cc1ccn(-c2nc(NCC3CCOC3)cc(C(C)O)n2)n1 (centres unmarked) [IN10880-058-P1] | + (+ means >1 uM) |
| Cc1ccn(-c2nc(NC3CCCCC3C)cc(C(C)O)n2)n1 (centres unmarked) [IN10880-059-P1] | + (+ means >1 uM) |
| Cc1ccn(-c2nc(NC3CCCC(C(F)(F)F)C3)cc(C(C)O)n2)n1 (centres unmarked) [IN10880-062-P1] | + (+ means >1 uM) |
| Cc1ccn(-c2nc(C(C)O)cc(N(C)C3CCCCC3)n2)n1 (centres unmarked) [IN10880-064-P1] | + (+ means >1 uM) |
| Cc1ccn(-c2nc(NC(C)(C)C)cc(C(C)O)n2)n1 (centres unmarked) [IN10880-065-P1] | + (+ means >1 uM) |
| Cc1csc(-c2nc(C(C)O)cc(N(C)C3CCCCC3)n2)n1 (centres unmarked) [IN10880-084-P1] | + (+ means >1 uM) |
| Cc1csc(-c2nc(NC3CCCC(C(F)(F)F)C3)cc(C(C)O)n2)n1 (centres unmarked) [IN10880-085-P1] | + (+ means >1 uM) |
| Cc1csc(-c2nc(NC3CCCCC3)cc(C(C)O)n2)n1 (centres unmarked) [IN10880-093-P1] | ++ (++ means 200 nM-1000 nM) |
| Cc1csc(-c2nc(NC3CCC(F)(F)CC3)cc(N3CCC(N(C)C)CC3)n2)n1 [IN10881-020.P1] | +++ (+++ means <200 nM) |
| Cc1csc(-c2nc(NC3CCC(F)(F)CC3)cc(N3CCCCC3)n2)n1 [IN10881-021.P1] | ++ (++ means 200 nM-1000 nM) |
| Cc1csc(-c2nc(NC3CCC(F)(F)CC3)cc(N3CCCC(O)C3)n2)n1 (centres unmarked) [IN10881-023-P2] | ++ (++ means 200 nM-1000 nM) |
| Cc1csc(-c2nc(NC3CCC(F)(F)CC3)cc(N3CCOC(CO)C3)n2)n1 (centres unmarked) [IN10881-025-P1] | ++ (++ means 200 nM-1000 nM) |
| Cc1csc(-c2nc(NC3CCC(F)(F)CC3)cc(N3CCOCC3CO)n2)n1 (centres unmarked) [IN10881-027-P1] | ++ (++ means 200 nM-1000 nM) |
| CC(=O)c1cc(NC2CCC(F)(F)CC2)nc(-n2nc(C)cc2C)n1 [IN10881-040-P1, 1-(6-((4,4-difluorocyclohexyl)amino)-2-(3,5-dimethyl-1H-pyrazol-1-yl)pyrimidin-4-yl)ethan-1-one] | + (+ means >1 uM) |
| Cc1ccn(-c2nc(C(C)O)cc(N3CCCC4CCCCC43)n2)n1 (centres unmarked) [IN10881-054-P1] | + (+ means >1 uM) |
| Cc1ccn(-c2nc(C(C)O)cc(N3CCCCCC3)n2)n1 (centres unmarked) [IN10881-058-P1] | + (+ means >1 uM) |
| Cc1ccn(-c2nc(C(C)O)cc(N(C)C3CCCCC3C)n2)n1 (centres unmarked) [IN10881-059-P1] | + (+ means >1 uM) |
| Cc1ccn(-c2nc(NC3C(C)CCCC3C)cc(C(C)O)n2)n1 (centres unmarked) [IN10881-060-P1] | + (+ means >1 uM) |
| Cc1csc(-c2nc(NC3CCC(F)(F)CC3)cc(N(C)C3CC3)n2)n1 [IN10881-090-P1] | + (+ means >1 uM) |
| CCN(CC)CC1CN(c2cc(NC3CCC(F)(F)CC3)nc(-c3nc(C)cs3)n2)CCO1 (centres unmarked) [IN10881-092-P1] | +++ (+++ means <200 nM) |

| Compound | SC100 (μM) |
| --- | --- |
| Cc1cc(C)n(-c2nc(NC3CCC(F)(F)CC3)nc(N3CCOCC3)n2)n1 [IN10881-098-P1, N-(4,4-difluorocyclohexyl)-4-(3,5-dimethyl-1H-pyrazol-1-yl)-6-morpholino-1,3,5-triazin-2-amine] | + (+ means >1 uM) |
| COCC1COCCN1c1cc(NC2CCC(F)(F)CC2)nc(-c2nc(C)cs2)n1 (centres unmarked) [IN10881-099-P1] | + (+ means >1 uM) |
| Cc1csc(-c2nc(NC3CCC(F)(F)CC3)cc(N3CCCC3)n2)n1 [IN10882-014-P1] | + (+ means >1 uM) |
| Cc1csc(-c2nc(NC3CCC(F)(F)CC3)cc(N3CCC(CO)C3)n2)n1 (centres unmarked) [IN10882-020-P1] | ++ (++ means 200 nM-1000 nM) |
| Cc1csc(-c2nc(NC3CCC(F)(F)CC3)cc(NC3COC3)n2)n1 [IN10882-040-P1] | + (+ means >1 uM) |
| Cc1csc(-c2nc(NC3CCC(F)(F)CC3)cc(N(C)C3COC3)n2)n1 [IN10882-043-P1] | + (+ means >1 uM) |
| Cc1ccn(-c2nc(C(C)O)cc(N3CCCCC3)n2)n1 (centres unmarked) [IN10882-055-P1] | + (+ means >1 uM) |
| Cc1ccn(-c2nc(NC(C)C)cc(N3CCOC(CO)C3)n2)n1 (centres unmarked) [IN10882-057-P1] | + (+ means >1 uM) |
| Cc1ccn(-c2nc(N3CCCCCC3)cc(N3CCOC(CO)C3)n2)n1 (centres unmarked) [IN10882-068-P1] | + (+ means >1 uM) |
| Cc1ccn(-c2nc(N3CCCCC3)cc(N3CCOC(CO)C3)n2)n1 (centres unmarked) [IN10882-072-P1, (4-(2-(3-methyl-1H-pyrazol-1-yl)-6-(piperidin-1-yl)pyrimidin-4-yl)morpholin-2-yl) methanol] | + (+ means >1 uM) |
| Cc1ccn(-c2nc(NC(C)(C)C)cc(N3CCOC(CO)C3)n2)n1 (centres unmarked) [IN10882-083-P1] | + (+ means >1 uM) |
| Cc1cc(C)n(-c2cc(NC3CCC(F)(F)CC3)cc(N3CCOCC3)c2)n1 [IN10963-024-P1, N-(4,4-difluorocyclohexyl)-3-(3,5-dimethyl-1H-pyrazol-1-yl)-5-morpholinoaniline] | + (+ means >1 uM) |
| Cc1cc(C)n(-c2nc(NC3CCC(F)CC3)cc(N3CCOCC3)n2)n1 (centres unmarked) [IN10963-049-P1] | ++ (++ means 200 nM-1000 nM) |
| Cc1cc(C)n(-c2nc(NC3CCC(F)(F)CC3)cc(C(C)OC(C)C)n2)n1 (centres unmarked) [IN10963-068-P1, N-(4,4-difluorocyclohexyl)-2-(3,5-dimethyl-1H-pyrazol-1-yl)-6-(1-isopropoxyethyl)pyrimidin-4-amine] | + (+ means >1 uM) |
| Cc1cc(C)n(-c2nc(CCO)cc(NC3CCC(F)(F)CC3)n2)n1 [IN10963-077-P1, 2-(6-((4,4-difluorocyclohexyl)amino)-2-(3,5-dimethyl-1H-pyrazol-1-yl)pyrimidin-4-yl) ethan-1-ol] | + (+ means >1 uM) |
| Cc1csc(-c2nc(NC3CCC(F)(F)CC3)cc(N3CCOC(COC(C)C)C3)n2)n1 (centres unmarked) [IN10964-007-P1] | +++ (+++ means <200 nM) |
| Cc1cc(C)n(-c2nc(NC3CCC(F)(F)CC3)cc(N3CCOC(COC(C)C)C3)n2)n1 (centres unmarked) [IN10964-008-P1] | ++ (++ means 200 nM-1000 nM) |
| Cc1cc(C)n(-c2nc(NC3CCC(F)(F)CC3)cc(C(C)N(C)C)n2)n1 (centres unmarked) [IN10964-046-P1, N-(4,4-difluorocyclohexyl)-2-(3,5-dimethyl-1H-pyrazol-1-yl)-6-(1-(dimethylamino)ethyl)pyrimidin-4-amine] | + (+ means >1 uM) |
| Cc1cc(C)n(-c2nc(NC3CCC(F)(F)CC3)cc(N3CCOCC3COC(C)C)n2)n1 (centres unmarked) [IN10965-089-P1] | ++ (++ means 200 nM-1000 nM) |
| Cc1csc(-c2nc(NC3CCC(F)(F)CC3)cc(N3CCOCC3COC(C)C)n2)n1 (centres unmarked) [IN10965-091-P1, N-(4,4-difluorocyclohexyl)-6-(3-(isopropoxymethyl)morpholino)-2-(4-methylthiazol-2-yl)pyrimidin-4-amine] | + (+ means >1 uM) |
